{"source": "patent US20090306093A1", "about": "“METHOD FOR TREATING PATIENT HAVING BENIGN PROSTATE HYPERPLASIA” (KAOHSIUNG MEDICAL UNIVERSITY, priority 2008, published 2009)", "key": {"[1]": {"tested_on": "cGMP", "test": "Determination of cGMP in rat isolated prostate (radioimmunoassay)", "details": "for cGMP levels: 1 hour", "method": "Isolated prostate strips from Wistar rats were prepared to determine prostate levels of cGMP and cAMP. Briefly, prostate strips were respectively incubated with KMUP-1 (10-100 μM), sildenafil (100 μM), and zaprinast (100 μM) in 10 mL Tyrode solution aerated with 95% O2 and 5% CO2 for 1 hour. To examine the possible mechanisms of action of KMUP-1, the rat prostate was pretreated with ODQ (10 μM, sGC inhibitor) and SQ22536 (9-(tetrahydro-2-furanyl)-9H-purin-6-amine, 10 μM, adenylyl cyclase inhibitor) for 30 minutes before KMUP-1 was added. After the incubation, the prostate tissues were extracted with 1 mL of 0.1 N HCl. The extracts were then lyophilized for a further measurement of cyclic GMP or cyclic AMP of each sample, using commercially available radioimmunoassay kits (Amersham Pharmacia Biotech, Buckinghamshire, England)."}, "[2]": {"tested_on": "PKA", "test": "Western blot of PKA expression in rat prostate", "method": "(§1) Prostate strips were incubated with KMUP-1 (10-100 μM), sildenafil (100 μM) and zaprinast (100 μM) in 10 mL Tyrode solution aerated with 95% O2 and 5% CO2 for 1 hour. To examine the possible mechanisms of KMUP-1 action, the rat prostate were pretreated with ODQ (10 μM), SQ22536 (10 μM) and RP-8pCPT-cGMPs (10 μM) for 30 minutes prior to the addition of KMUP-1 (100 μM).\nIn order to examine the expression of Rho kinase in prostate, the prostate strips were pre-incubated with phenylephrine (10 μM) for 30 minutes. After a pre-treatment of phenylephrine, KMUP-1 (10-100 μM) and Y-27632 (10 μM) were further incubated for 30 minutes. After the incubation time, the prostate were extracted with protein extraction reagent (Pierce Biotechnology, Inc., Rockford, Ill., USA.). The PZ-HPV-7 cells were incubated with and without KMUP-1 (0.1-10 μM) at 30 minutes, 8 and 24 hours. They were then washed rapidly with ice-cold PBS, incubated with protein extraction reagent, and scraped from the plates. The prostate tissues and cells were sonicated three times for 10 second each time and centrifuged at 13,000 rpm at 4° C. for 30 minutes. The protein concentrations of supernatants were determined, using bovine serum albumin as the standard. […] The intensity of the bands was measured by densitometry."}, "[3]": {"tested_on": "sGCa1", "test": "Western blot of sGCa1 expression in rat prostate", "method": "as §1\nIn order to examine the expression of Rho kinase in prostate, the prostate strips were pre-incubated with phenylephrine (10 μM) for 30 minutes. After a pre-treatment of phenylephrine, KMUP-1 (10-100 μM) and Y-27632 (10 μM) were further incubated for 30 minutes. After the incubation time, the prostate were extracted with protein extraction reagent (Pierce Biotechnology, Inc., Rockford, Ill., USA.). The PZ-HPV-7 cells were incubated with and without KMUP-1 (0.1-10 μM) at 30 minutes, 8 and 24 hours. They were then washed rapidly with ice-cold PBS, incubated with protein extraction reagent, and scraped from the plates. The prostate tissues and cells were sonicated three times for 10 second each time and centrifuged at 13,000 rpm at 4° C. for 30 minutes. The protein concentrations of supernatants were determined, using bovine serum albumin as the standard. Tissue and cell extract protein were then boiled at a ratio of 4:1 with sample buffer (100 mM Tris, pH 6.8, 20% glycerol, 4% SDS, and 0.2% bromphenol blue). 40-60 μg protein was used in this experiment. Electrophoresis was performed using 10 or 12% SDS-polyacrylamide gel electrophoresis and then transferred to nitrocellulose membranes (Millipore Corporation, Billerica, Mass.). The membrane was blocked with Tris-buffered saline (20 mM Tris and 137 mM NaCl, pH 7.6) containing 0.1% Tween 20 (TTBS) and 5% non-fat milk at room temperature for 1 hour, washed with TTBS, and then incubated overnight at 4° C. in the appropriate primary antibody of PKG (Santa Cruz, 1:200), sGCa1 (Santa Cruz, 1:200), PKA (Abcam, 1:1000), ROCK2 (Upstate, 1:1000), and PDE5A (BD Biosciences, 1:1000), p21 (Upstate, 1:1000). The membranes were washed in TTBS before being incubated with horseradish peroxidase-conjugated antibody against mouse, goat, or rabbit IgG (Santa Cruz, 1:1000) for 1 hour. The membrane was then washed in TTBS and developed with the enhanced chemiluminescence (ECL) for the detection of the specific antigen. The intensity of the bands was measured by densitometry."}, "[4]": {"tested_on": "PZ-HPV-7 human prostatic epithelial cells", "test": "Cell cycle distribution by flow cytometry", "type": "cell-based", "details": "48 hours", "method": "PZ-HPV-7 cells were incubated for 2 days with or without KMUP-1 (0.1-10 μM), after trypsinized for 10 minutes with 0.5% trypsin supplemented with 5.3 mM EDTA in HBBS. The cell suspension was then centrifuged at 200 g for 5 minutes at 4° C., resuspended in 1 mL ice-cold HBSS and fixed by the drop-wise addition of 2 mL of ice-cold methanol followed by continuously shaking. The processed cells were kept on ice for 30 minutes and then cells were collected by centrifugation at 90 g for 5 min and stained with propidium iodide (50 μg/mL, Sigma). RNase A (Promega, Madison, Wis.) was then added to a final concentration of 100 U/mL. Samples were stored in the dark for at least 30 minutes before an analysis on a Coulter Epics XL-MCL flow cytometer. […]"}}, "data": [{"compound": "Cn1c(=O)c2c(ncn2CCN2CCN(c3ccccc3Cl)CC2)n(C)c1=O", "note": "[KMUP-1, 7-[2-[4-(2-Chlorobenzene)piperazinyl]ethyl]-1,3-dimethyl xanthine]", "values": [{"measurement": "cGMP levels", "setting": "[1]; 10 μM", "value": "3.50±0.58", "unit": "pmol mg^−1 protein"}, {"measurement": "cGMP levels", "setting": "[1]; 100 μM", "value": "7.50±0.79", "unit": "pmol mg^−1 protein"}, {"measurement": "accumulation of cGMP", "setting": "[1]; KMUP-1 100 μM in the presence of ODQ 10 μM", "value": "2.54±0.73", "unit": "pmol mg^−1 protein"}, {"measurement": "expression of PKA", "setting": "[2]; 100 μM", "value": "significantly induces"}, {"measurement": "expression of PKA", "setting": "[2]; KMUP-1 100 μM with SQ22536 10 μM", "value": "reversed"}, {"measurement": "expression of sGCa1", "setting": "[3]; KMUP-1 100 μM after pretreatment of ODQ 10 μM for 30 minutes", "value": "significantly reduce"}, {"measurement": "expression of sGCa1", "setting": "[3]; KMUP-1 10-100 μM, sildenafil, zaprinast 100 μM, 1 hour", "value": "most potently induces"}, {"measurement": "increase of G0/G1 phase compared with vehicle control", "setting": "[4]; 0.1 μM", "value": "7±1.54", "unit": "%"}, {"measurement": "increase of G0/G1 phase compared with vehicle control", "setting": "[4]; 1 μM", "value": "10±2.07", "unit": "%"}, {"measurement": "increase of G0/G1 phase compared with vehicle control", "setting": "[4]; 10 μM", "value": "12.00±0.88", "unit": "%"}]}]}
